According to ChEMBL document CHEMBL1240316, “An oxidation-sensing mechanism is used by the global regulator MgrA in Staphylococcus aureus” (2006):
Converted amounts (≈) assume the structure as drawn.

How the values were obtained:
Assay type in all cases: functional
Staphylococcus aureus [1] = experiment: Antimicrobial activity against compound treated Staphylococcus aureus harboring mgrA C12S mutant gene retro-orbitally infected into mouse assessed as reduction in bacterial CFU in kidney at 10 ug/ml relative to control
Staphylococcus aureus [2] = experiment: Antimicrobial activity against compound treated Staphylococcus aureus harboring mgrA C12S mutant gene retro-orbitally infected into mouse assessed as reduction in bacterial CFU in liver at 10 ug/ml relative to control
Staphylococcus aureus [3] = experiment: Antimicrobial activity against Staphylococcus aureus expressing mgrA C12S mutant gene
Staphylococcus aureus [4] = experiment: Antimicrobial activity against Staphylococcus aureus

CC[C@H]1OC(=O)[C@H](C)[C@@H](O[C@H]2C[C@@](C)(OC)[C@@H](O)[C@H](C)O2)[C@H](C)[C@@H](O[C@@H]2O[C@H](C)C[C@H](N(C)C)[C@H]2O)[C@](C)(O)C[C@@H](C)C(=O)[C@H](C)[C@@H](O)[C@]1(C)O [ERYTHROMYCIN]
fold change (FC) (Staphylococcus aureus [1]): 10000
fold change (FC) (Staphylococcus aureus [2]): 100

CCn1cc(C(=O)O)c(=O)c2cc(F)c(N3CCNCC3)cc21 [NORFLOXACIN]
MIC (Staphylococcus aureus [3]): 1.4 µg/mL (≈ 4.38 µM)
MIC (Staphylococcus aureus [4]): 0.7 µg/mL (≈ 2.19 µM)
